How the values were obtained:
PPARα = molecular target: T1, PPARα (Homo sapiens, UniProt Q07869); assay: Radioligand binding assay (SPA), PPARα receptor binding; details: GST-PPARα-LBD fusion protein, scintillation proximity radioligand binding
T1 construct: PPARα (aa 167 to 469); made in house; host or cells: E. coli BL21 (pLysS)
T1 sequence (Q07869 167-468 limits assumed): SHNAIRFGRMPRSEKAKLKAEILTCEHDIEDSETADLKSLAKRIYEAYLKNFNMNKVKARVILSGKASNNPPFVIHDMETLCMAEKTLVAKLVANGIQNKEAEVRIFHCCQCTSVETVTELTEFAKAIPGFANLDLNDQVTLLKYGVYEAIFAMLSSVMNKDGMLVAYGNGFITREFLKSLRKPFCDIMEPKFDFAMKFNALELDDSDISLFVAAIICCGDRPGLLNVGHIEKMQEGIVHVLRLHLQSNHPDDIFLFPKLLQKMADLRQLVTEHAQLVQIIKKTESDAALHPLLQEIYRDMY
Excerpt: (§1) Full-length cDNA clones for humans PPARδ and PPARα and mouse PPARγ were obtained by RT-PCR from human adipose and mouse liver cRNA, respectively, cloned into plasmid vectors and verified by DNA sequencing. Bacterial and mammalian expression vectors were constructed to produce glutathione-s-transferase (GST) and Gal4 DNA binding domain proteins fused to the ligand binding domains (LBD) of PPARδ (aa 139 to 442), PPARγ (aa 174 to 476) and PPARα (aa 167 to 469). To accomplish this, the portions of the cloned sequences encoding the LBDs were amplified from the full-length clones by PCR and then subcloned into the plasmid vectors. Final clones were verified by DNA sequence analysis.
(§2) Induction, expression, and purification of GST-LBD fusion proteins were performed in E. coli strain BL21 (pLysS) cells by standard methods (Ref: Current Protocols in Molecular Biology, Wiley Press, edited by Ausubel et al.).
PPARα receptor binding was assayed in TKE50 (50 mM Tris-HCl, pH 8, 50 mM KCl, 2 mM EDTA, 0.1 mg/ml fatty acid-free BSA and 10 mM DTT). For each 96 well reaction an 140 ng equivalent of GST-PPARα-LBD fusion protein was bound to 10 μg SPA beads (PharmaciaAmersham) in a final volume of 50 μl by shaking. The resulting slurry was incubated for 1 h at RT and centrifuged for 2 min at 1300 g. The supernatant containing unbound protein was removed and the semidry pellet containing the receptor-coated beads was resolved in 50 μl of TKE. For radioligand binding e.g. 10000 dpm of 2(S)-(2-benzoyl-phenylamino)-3-{4-[1,1-ditritio-2-(5-methyl-2-phenyl-oxazol-4-yl)-ethoxy]-phenyl}-propionic acid or 2,3-ditritio-2(S)-methoxy-3-{4-[2-(5-methyl-2-phenyl-oxazol-4-yl)-ethoxy]-benzo [b]thiophen-7-yl}-propionic acid in 50 ul were added, the reaction incubated at RT for 1 h and scintillation proximity counting performed. All binding assays were performed in 96 well plates and the amount of bound ligand measured on a Packard TopCount using OptiPlates (Packard). Nonspecific binding was determined in the presence of 10^−4 M unlabelled compound. […]

PPARδ = molecular target: T2, PPARδ (Homo sapiens, UniProt Q03181); assay: Radioligand binding assay (SPA), PPARδ receptor binding; details: GST-PPARδ-LBD fusion protein, scintillation proximity radioligand binding
T2 construct: PPARδ (aa 139 to 442); made in house; host or cells: E. coli BL21 (pLysS)
T2 sequence (Q03181 139-441 limits assumed): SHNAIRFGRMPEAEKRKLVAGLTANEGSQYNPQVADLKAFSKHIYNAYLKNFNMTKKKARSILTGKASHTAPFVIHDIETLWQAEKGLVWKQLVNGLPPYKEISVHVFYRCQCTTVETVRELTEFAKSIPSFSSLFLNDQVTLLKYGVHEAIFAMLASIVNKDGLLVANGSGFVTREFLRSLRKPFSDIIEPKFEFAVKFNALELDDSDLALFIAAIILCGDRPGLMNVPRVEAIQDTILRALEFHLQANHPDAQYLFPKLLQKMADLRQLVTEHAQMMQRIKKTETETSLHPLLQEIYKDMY
Excerpt: as §1, §2
PPARδ receptor binding was assayed in HNM10 (50 mM Hepes, pH 7.4, 10 mM NaCl, 5 mM MgCl2, 0.15 mg/ml fatty acid-free BSA and 15 mM DTT). For each 96 well reaction a 500 ng equivalent of GST-PPARδ-LBD fusion protein and radioligand, e.g. 20000 dpm {2-methyl-4-[4-methyl-2-(4-trifluoromethyl-phenyl)-thiazol-5-yl-ditritiomethylsulfanyl]-phenoxy}-acetic acid, was bound to 10 μg SPA beads (PharmaciaAmersham) in a final volume of 50 μl by shaking. The resulting slurry was incubated for 1 h at RT and centrifuged for 2 min at 1300 g. The supernatant containing unbound protein was removed and the semidry pellet containing the receptor-coated beads was resuspended in 50 μl of HNM. Radioligand was added and the reaction incubated at RT for 1 h and scintillation proximity counting performed in the presence of test compounds was determined. All binding assays were performed in 96 well plates and the amount of bound ligand was measured on a Packard TopCount using OptiPlates (Packard). Dose response curves were done in triplicates within a range of concentration from 10^−10 M to 10^−4 M.

PPARγ = molecular target: T3, PPARγ (Mus musculus, UniProt P37238); assay: Radioligand binding assay (SPA), PPARγ receptor binding; details: GST-PPARγ-LBD fusion protein, scintillation proximity radioligand binding
T3 construct: PPARγ (aa 174 to 476); made in house; host or cells: E. coli BL21 (pLysS)
T3 sequence (P37238 204-505): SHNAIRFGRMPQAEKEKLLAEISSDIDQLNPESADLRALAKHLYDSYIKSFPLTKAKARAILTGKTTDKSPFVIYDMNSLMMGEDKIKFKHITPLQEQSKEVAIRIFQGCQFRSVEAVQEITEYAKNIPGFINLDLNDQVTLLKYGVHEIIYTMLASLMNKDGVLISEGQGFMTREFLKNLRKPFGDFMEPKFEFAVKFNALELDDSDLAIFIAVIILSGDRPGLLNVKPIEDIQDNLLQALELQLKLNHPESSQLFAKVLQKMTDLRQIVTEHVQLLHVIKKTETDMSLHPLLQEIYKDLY
Excerpt: as §1, §2
PPARγ receptor binding was assayed in TKE50 (50 mM Tris-HCl, pH 8, 50 mM KCl, 2 mM EDTA, 0.1 mg/ml fatty acid-free BSA and 10 mM DTT). For each 96 well reaction an 140 ng equivalent of GST-PPARγ-LBD fusion protein was bound to 10 μg SPA beads (PharmaciaAmersham) in a final volume of 50 μl by shaking. The resulting slurry was incubated for 1 h at RT and centrifuged for 2 min at 1300 g. The supernatant containing unbound protein was removed and the semidry pellet containing the receptor-coated beads was resolved in 50 ul of TKE. For radioligand binding e.g. 10000 dpm 2(S)-(2-benzoyl-phenylamino)-3-{4-[1,1-ditritio-2-(5-methyl-2-phenyl-oxazol-4-yl)-ethoxy]-phenyl}-propionic acid in 50 μl were added, the reaction incubated at RT for 1 h and scintillation proximity counting performed. All binding assays were performed in 96 well plates and the amount of bound ligand measured on a Packard TopCount using OptiPlates (Packard). Nonspecific binding was determined in the presence of 10^−4 M unlabelled compound. Dose response curves were done in triplicates within a range of concentration from 10^−10 M to 10^−4 M.

melting point | IC50 (PPARα) [nM] | IC50 (PPARδ) [nM] | IC50 (PPARγ) [nM] | SMILES
127 to 128 °C (dec.) | – | – | – | CC(C)(Oc1ccc(CNC(=O)CCC#Cc2ccc(OC(F)(F)F)cc2)cc1)C(=O)O [Example 29, 2-Methyl-2-(4-{[5-(4-trifluoromethoxy-phenyl)-pent-4-ynoylamino]-methyl}-phenoxy)-propionic acid]
116 to 118 °C | – | – | – | Cc1c(OC(C)(C)C(=O)O)ccc(OCCCC#Cc2ccc(OC(F)(F)F)cc2)c1F [Example 33, 2-{3-Fluoro-2-methyl-4-[5-(4-trifluoromethoxy-phenyl)-pent-4-ynyloxy]-phenoxy}-2-methyl-propionic acid]
90 to 91 °C (dec.) | 21 | 120 | > 10000 | Cc1cc(OCCCC#Cc2ccc(OC(F)(F)F)cc2)ccc1OC(C)(C)C(=O)O [Example 13, 2-Methyl-2-{2-methyl-4-[5-(4-trifluoromethoxy-phenyl)-pent-4-ynyloxy]-phenoxy}-propionic acid]
94 to 95 °C | 14 | 39 | > 10000 | Cc1cc(SCCCC#Cc2ccc(OC(F)(F)F)cc2)ccc1OCC(=O)O [Example 4, {2-Methyl-4-[5-(4-trifluoromethoxy-phenyl)-pent-4-ynylsulfanyl]-phenoxy}-acetic acid]
124.6 to 126.7 °C | – | – | – | Cc1cc(OCCCC#Cc2ccc(OC(F)(F)F)cc2)ccc1OCC(=O)O [Example 20, {2-Methyl-4-[5-(4-trifluoromethoxy-phenyl)-pent-4-ynyloxy]-phenoxy}-acetic acid]
129 to 130 °C | – | – | – | Cc1cc(SCCC#Cc2ccc(C(F)(F)F)cc2)ccc1OCC(=O)O [Example 12, {2-Methyl-4-[4-(4-trifluoromethyl-phenyl)-but-3-ynylsulfanyl]-phenoxy}-acetic acid]
106 to 107 °C (dec.) | – | – | – | Cc1cc(OCCCC#Cc2ccc(Cl)c(F)c2)ccc1OC(C)(C)C(=O)O [Example 27, 2-{4-[5-(4-Chloro-3-fluoro-phenyl)-pent-4-ynyloxy]-2-methyl-phenoxy}-2-methyl-propionic acid]
65.5 to 68.5 °C | – | – | – | CC(C)(Oc1ccc(OCCCC#Cc2ccc(OC(F)(F)F)cc2)c(F)c1)C(=O)O [Example 32, 2-{3-Fluoro-4-[5-(4-trifluoromethoxy-phenyl)-pent-4-ynyloxy]-phenoxy}-2-methyl-propionic acid]
90 to 92 °C | – | – | – | Cc1cc(SCC#Cc2ccccc2)ccc1OCC(=O)O [Example 10, [2-Methyl-4-(3-phenyl-prop-2-ynylsulfanyl)-phenoxy]-acetic acid]
143 to 144 °C | – | – | – | COc1ccc(C#CCSc2ccc(OCC(=O)O)c(C)c2)cc1 [Example 9, {4-[3-(4-Methoxy-phenyl)-prop-2-ynylsulfanyl]-2-methyl-phenoxy}-acetic acid]
62 to 71 °C (dec.) | 18 | 203 | > 10000 | Cc1cc(OCCC#Cc2ccc(OC(F)(F)F)cc2)ccc1OC(C)(C)C(=O)O [Example 17, 2-Methyl-2-{2-methyl-4-[4-(4-trifluoromethoxy-phenyl)-but-3-ynyloxy]-phenoxy}-propionic acid]
119 to 120 °C (dec.) | – | – | – | Cc1cc(OCCCC#Cc2ccc(Cl)cc2)ccc1OC(C)(C)C(=O)O [Example 15, 2-{4-[5-(4-Chloro-phenyl)-pent-4-ynyloxy]-2-methyl-phenoxy}-2-methyl-propionic acid]
95 to 97 °C (dec.) | – | – | – | Cc1cc(OCCCC#Cc2cnc(C(F)(F)F)nc2)ccc1OC(C)(C)C(=O)O [Example 28, 2-Methyl-2-{2-methyl-4-[5-(2-trifluoromethyl-pyrimidin-5-yl)-pent-4-ynyloxy]-phenoxy}-propionic acid]
130 to 131 °C | – | – | – | Cc1cc(SCC#Cc2ccc(C(F)(F)F)cc2)ccc1OCC(=O)O [Example 5, {2-Methyl-4-[3-(4-trifluoromethyl-phenyl)-prop-2-ynylsulfanyl]-phenoxy}-acetic acid]
106 to 108 °C | – | – | – | Cc1cc(SCC#Cc2ccc(Cl)cc2)ccc1OCC(=O)O [Example 8, {4-[3-(4-Chloro-phenyl)-prop-2-ynylsulfanyl]-2-methyl-phenoxy}-acetic acid]
114 to 115 °C (dec.) | – | – | – | Cc1cc(OCCCC#Cc2ccc(C(F)(F)F)cc2)ccc1OC(C)(C)C(=O)O [Example 14, 2-Methyl-2-{2-methyl-4-[5-(4-trifluoromethyl-phenyl)-pent-4-ynyloxy]-phenoxy}-propionic acid]
68 to 69 °C (dec.) | – | – | – | Cc1cc(OCCC#Cc2ccc(Cl)cc2)ccc1OC(C)(C)C(=O)O [Example 18, 2-{4-[4-(4-Chloro-phenyl)-but-3-ynyloxy]-2-methyl-phenoxy}-2-methyl-propionic acid]
95 to 97 °C | – | – | – | Cc1cc(SCC#Cc2ccccc2C(F)(F)F)ccc1OCC(=O)O [Example 7, {2-Methyl-4-[3-(2-trifluoromethyl-phenyl)-prop-2-ynylsulfanyl]-phenoxy}-acetic acid]
81 to 82 °C | – | – | – | Cc1cc(SCC#Cc2cccc(C(F)(F)F)c2)ccc1OCC(=O)O [Example 6, {2-Methyl-4-[3-(3-trifluoromethyl-phenyl)-prop-2-ynylsulfanyl]-phenoxy}-acetic acid]

— US7253192B2, “Phenyl derivatives comprising an acetylene group” (Hoffmann-La Roche Inc., priority 2004, dated 2007)
